{"source": "patent US5811459A", "about": "“Ortho substituted aromatic compounds useful as antagonists of the pain enhancing effects of E-type prostaglandins” (Zeneca Limited, priority 1994, dated 1998)", "origin": "cited, not measured here", "key": {"[1]": {"tested_on": "guinea pig ileum or dog fundus", "settings": "some tissues such as guinea pig ileum or dog fundus"}, "[2]": {"tested_on": "cat trachea or chick ileum", "settings": "other tissues such as the cat trachea or chick ileum"}}, "data": [{"smiles": "CC(=O)NNC(=O)N1Cc2ccccc2Oc2ccc(Cl)cc21", "note": "[SC-19220]", "values": [{"measurement": "block of the effect of PGE2", "setting": "[1]", "value": "blocks the effect of PGE2"}, {"measurement": "block of the effect of PGE2", "setting": "[2]", "value": "not on other tissues"}]}]}
